{"source": "ChEMBL document CHEMBL1149011", "about": "“Pulcherralpin, a new diterpene ester from Caesalpinia pulcherrima” (J Nat Prod, 1986)", "key": {"KB": {"test_system": "KB", "experiment": "Cytotoxicity against human KB cells", "format": "functional, cell-based"}, "P388": {"test_system": "P388", "experiment": "Cytotoxicity against mouse P388 cells", "format": "functional, cell-based"}}, "note": "The source made the active and inactive calls. No cut-off for these calls is given here.", "data": [{"smiles": "COC(=O)C[C@@H]1C(=O)C[C@H]2[C@H]([C@H]1C)[C@@H](O)[C@@H](OC(=O)/C=C/c1ccccc1)[C@@]1(O)C(C)(C)CCC[C@]21C", "values": [{"measurement": "Activity", "setting": "KB", "value": "inactive"}, {"measurement": "Activity", "setting": "P388", "value": "inactive"}]}]}
